Test results taken from paper PMC8479088, “Thiocysteine lyases as polyketide synthase domains installing hydropersulfide into natural products and a hydropersulfide methyltransferase” (Nature Communications, 2021).

Legend:
WsmR-SH = tested on: T1, WsmR-SH; test: pyruvate release, OPD derivatization, HPLC; format: biochemical, Streptomyces sp. CB02120-2; conditions: 0.2 mM PLP, 20 mM KCl, 28 °C
T1 construct: N-terminal His6 tag (same procedure as GnmP), E. coli, plasmid pBS22010; PLP-dependent

LnmJ-SH = molecular target: T2, LnmJ-SH (Streptomyces atroolivaceus, UniProt Q8GGP2); test: pyruvate release, OPD derivatization, HPLC; format: biochemical; conditions: 0.2 mM PLP, 20 mM KCl, 28 °C
T2 construct: E. coli, plasmid pBS3109, published procedure; PLP-dependent

GnmT-SH = tested on: T3, GnmT-SH; test: pyruvate release, OPD derivatization, HPLC; format: biochemical, Streptomyces sp. CB01883; conditions: 0.2 mM PLP, 20 mM KCl, 28 °C
T3 construct: N-terminal His6 tag (same procedure as GnmP), E. coli, plasmid pBS21022; PLP-dependent

GnmP [1] = tested on: T4, GnmP; test: HPLC of S-methylated product; format: biochemical, Streptomyces sp. CB01883; conditions: 2 mM SAM; 50 mM sodium phosphate pH 8.0; 28 °C
T4 construct: N-terminal His6-tagged GnmP, E. coli BL21(DE3), plasmid pBS21021

GnmP [2] = tested on: T4, GnmP; test: HPLC of methylated product […], WsmR-SH coupled; format: biochemical, Streptomyces sp. CB01883; conditions: 7 generated in situ from 9 as surrogate substrate by 220 µM WsmR-SH; 2 mM SAM; 50 mM sodium phosphate pH 8.0; 28 °C; methods print substrate range in mM

T2 sequence (Q8GGP2 entry or part of it): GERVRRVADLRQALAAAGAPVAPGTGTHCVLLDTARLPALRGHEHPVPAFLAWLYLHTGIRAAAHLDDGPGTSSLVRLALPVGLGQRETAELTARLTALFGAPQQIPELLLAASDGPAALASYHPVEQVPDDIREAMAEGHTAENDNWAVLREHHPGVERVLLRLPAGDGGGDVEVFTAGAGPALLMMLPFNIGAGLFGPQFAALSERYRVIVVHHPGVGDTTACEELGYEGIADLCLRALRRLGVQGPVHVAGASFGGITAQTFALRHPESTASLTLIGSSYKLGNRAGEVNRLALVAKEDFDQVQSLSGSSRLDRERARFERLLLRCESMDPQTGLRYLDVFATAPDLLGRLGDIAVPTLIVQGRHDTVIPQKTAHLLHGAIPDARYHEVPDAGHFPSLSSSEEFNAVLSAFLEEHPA

Compound | Km (WsmR-SH; 50 mM sodium phosphate pH 7.2) [mM] | Km (LnmJ-SH; 50 mM sodium phosphate pH 7.2) [mM] | Km (GnmT-SH; 50 mM sodium phosphate pH 7.2) [mM] | other results
CC(=O)NCCSC(=O)CC(C)(C)SC[C@H](N)C(=O)O [compound 16, N-acetylcysteamine thioester (SNAC) of a truncated L-cysteine-polyketide adduct] | 54 ± 10 | 69 ± 11 | 41 ± 5 | 
CC(=O)NCCSC(=O)CC(C)(C)SSC[C@H](N)C(=O)O [compound 17, SNAC of a truncated L-thiocysteine-polyketide adduct] | 6.6 ± 0.7 | 9 ± 0.9 | 7.7 ± 1.2 | 
GNM B [compound 4] |  |  |  | Km (GnmP [1]): 0.0121 ± 0.0022 mM
GNM P [compound 7] |  |  |  | Km (GnmP [2]): 0.00245 ± 0.00041 mM
L-cysteinyl-GNM B adduct [compound 9] |  |  |  | Km (WsmR-SH; 50 mM sodium phosphate pH 8.0): 1.45 ± 0.12 mM; Km (LnmJ-SH; Tris-HCl pH 8.5): 7.04 ± 0.84 mM; Km (GnmT-SH; 50 mM sodium phosphate pH 8.0): 3.2 ± 0.3 mM
